From patent publication US8748116B2, “1L1RL-1 as a cardiovascular disease marker and therapeutic target” (The Brigham and Women s Hospital, Inc., priority 2002, dated 2014) come the findings set out here.

“Also recorded” adds a separate entry of the source. Starred links: 1 amine or outer side, 2 acyl side, 3 side chain; linkers in the order of their positions; H or OH if unused. Positions of bridges follow the written chain, without caps; N, C: chain ends. Non-standard residues stand in square brackets, D forms with d. Residues, ends and D or L forms follow the SMILES beside them. Chains are numbered I, II in the order given. Actinocin(9to1) = Cc1c2oc3c(C)ccc(C(=O)[*:1])c3nc-2c(C(=O)[*:2])c(N)c1=O; NMeV = CN[C@H](C(=O)O)C(C)C; Sar = CNCC(=O)O

One assay concerns IL1RL-1 mRNA expression. Nature of the assay: Northern blot of IL1RL-1 (T1/ST2) mRNA induction in cultured neonatal rat cardiac myocytes, with or without 8% cyclic mechanical strain. Format: cell-based. The note with it: for effect on the induction of IL1RL-1 mRNA expression by 8% mechanical strain: FIG. 4, applied during strain, actinomycin D 5 μg/ml (2 and 4 hours), cyclohexamide 10 μg/ml; for induction of IL1RL-1 mRNA expression in the absence of mechanical strain: FIG. 2, 3 hours, Ang II 50 nM; for induction of IL1RL-1 mRNA expression in the absence of mechanical strain / rank order potency for the induction of IL1RL-1 mRNA expression / induction of IL1RL-1 mRNA expression by the agent alone: IL-1β 10 ng/ml; for induction of IL1RL-1 mRNA expression in the absence of mechanical strain / rank order potency for the induction of T1/ST2 mRNA expression: PMA 200 nM; for rank order potency for the induction of IL1RL-1 mRNA expression: PMA 100 ng/ml, 8% strain; for induction of IL1RL-1 mRNA expression by the agent alone: PMA 100 ng/ml in the absence of strain; for rank order potency for the induction of T1/ST2 mRNA expression: strain 8%, 1 and 3 hours. The source says: The approach to mechanical stimulation used an apparatus that has multiple platens that contact the underside of silicone elastomer membranes to apply a spatially isotropic biaxial strain profile to the membrane (Schaffer J L, et al., J Orthop Res, 1993, 12:709-719; and U.S. Provisional Patent application 60/144,134 filed on Jul. 16, 1999 entitled “AN APPARATUS FOR STUDYING MYOCARDIAL MECHANICAL OVERLOAD HYPERTROPHY AND USES THEREFOR, by Richard T. Lee. Six individual 78 mm membranes can be stretched at once with varying amplitudes of strain by controlling displacement of each platen with a stepper motor. Measured Green strains are accurate to ˜±0.25% at strains from 1-14% (Cheng G C, et al., Circ Res, 1997, 80:28-36; Brown T D, J Biomechanics, 2000, 33:3-14). Throughout this study, 8% biaxial strain was used.
Neonatal rat ventricular myocytes (NRVM) from 1-day old Sprague-Dawley rats were isolated by previously described methods (Springhorn J P, and Claycomb W C., Biochem J, 1989; 258:73-78; Arstall M A, et al., J Mol Cell Cardiol, 1998, 30:1019-25). NRVM were plated on the coated membrane dish at a density of 2,000,000 cells/dish in DMEM containing 7% FCS and incubated 24 h. Approximate cell confluence was 85-90%. NRVM were then made quiescent by washing with 10 ml of Hanks' balanced salt solution (HBSS, 138 mM NaCl, 5.3 mM KCl, 4.0 mM NaHCO3, 1.3 mM CaCl2, 0.5 mM MgCl2, 0.4 mM MgSO4, 0.4 mM KH2PO4, 0.3 mM Na2HPO4, 5.6 mM glucose; Life Technologies, Inc., Rockville, Md.) twice and incubating with 26 ml of DMEM containing 0.2% FCS for 48-72 hours.
The cDNA clones for differentially expressed genes were obtained by PCR using the GenBank sequences. Each clone was sequenced from both 5′ and 3′ ends to confirm identity. Positive elements in the DNA microarray were confirmed by Northern blot hybridization analysis in at least three independent experiments using three different sources of NRVMs. Total RNA was isolated by the guanidium thiocyanate and phenol chloroform method (Chomcyznski, et al., Anal. Biochem., 1987, 162:156-159). For Northern blotting, 15 μg RNA was loaded on a 1.0% agarose-formaldehyde gel (2.0 mol/l), transferred to a nylon membrane (Amersham Pharmacia Biotech AB, Piscataway, N.J.), and UV cross-linked with a UV Stratalinker (Stratagene, Inc., La Jolla, Calif.). Each probe was hybridized with ExpressHyb solution (Clontech Labs., Inc., Palo Alto, Calif.) at 68° C. for 1 hour. The membrane was washed with 2×SSC, 0.05% SDS solution for 30 to 40 minutes and three times at room temperature and 0.1×SSC, 0.1% SDS solution with continuous shaking at 50° C. for 40 minutes. The membrane was exposed to film at −80° C., and radiographs were scanned and analyzed with Optimas 5.0 software (Optimas Co./Media Cybernetics, Silver Springs, Md.). Densitometric units were normalized to the ethidium-stained 28S ribosomal subunit on the membrane.
T1/ST2 mRNA is induced by mechanical strain in cultured neonatal cardiac myocytes. Neonatal rat ventricular myocytes were isolated by collagenase digestion, plated on fibronectin-coated silicone membrane dishes at a density of 3.5 million cells/dish in 13 ml media as previously described (Yamamoto K, et al. J Biol. Chem. 1999; 274:21840-21846). This technique yields cultures with ≧95% myocytes. Mechanical deformation was applied using a device that provides uniform biaxial cyclic strain as previously described (Yamamoto K, et al. J Biol. Chem. 1999; 274:21840-21846). RNA was extracted (Qiagen) and Northern blotting was performed using as a probe a ^32P-labelled 600 bp PCR fragment specific to rat T1/ST2. Maximal induction occurs at 3 hours, is sustained for 9 hours and declines by 15 hours. […]

Another assay concerns T1/ST2 mRNA. Nature of the assay: T1/ST2 mRNA induction in human adult vascular smooth muscle cells. The format is cell-based.

Consider `Cc1c2oc3c(C)ccc(C(=O)N[C@@H]4C(=O)N[C@H](C(C)C)C(=O)N5CCC[C@H]5C(=O)N(C)CC(=O)N(C)[C@@H](C(C)C)C(=O)O[C@@H]4C)c3nc-2c(C(=O)N[C@@H]2C(=O)N[C@H](C(C)C)C(=O)N3CCC[C@H]3C(=O)N(C)CC(=O)N(C)[C@@H](C(C)C)C(=O)O[C@@H]2C)c(N)c1=O` [Actinomycin D, actinomycin D] (I: T[dV]P[Sar][NMeV] / II: T[dV]P[Sar][NMeV]; ester I:1-I:C, II:1-II:C; linker I:N-II:N via Actinocin(9to1)), for which the “effect on the induction of IL1RL-1 mRNA expression by 8% mechanical strain” value in the assay on IL1RL-1 mRNA expression was “blocked the induction”.

Turning to `OO` [H2O2, hydrogen peroxide], in the assay on IL1RL-1 mRNA expression (FIG. 3, 8% mechanical strain, H2O2 100 uM), the “effect on the strain-induced induction of IL1RL-1” value was “blocks the strain-induced induction”. Moreover, in the assay on IL1RL-1 mRNA expression (FIG. 3, H2O2 100 uM), the “induction of IL1RL-1 in the absence of strain” value is “does not induce”.

With `CCCCCCCCCCCCCC(=O)O[C@@H]1[C@@H](C)[C@@]2(O)[C@@H](C=C(CO)C[C@]3(O)C(=O)C(C)=C[C@@H]23)[C@@H]2C(C)(C)[C@]12OC(C)=O` [PMA], in the assay on IL1RL-1 mRNA expression, the “induction of IL1RL-1 mRNA expression in the absence of mechanical strain” value (from here on “induction … of mechanical strain”) is given as “associated with an induction”. In the assay with IL1RL-1 mRNA expression (FIG. 5), the “rank order potency for the induction of IL1RL-1 mRNA expression” value is reported as “PMA>strain>IL-1β” and the “induction of IL1RL-1 mRNA expression by the agent alone” value is recorded as “strongest induction”. The “rank order potency for the induction of T1/ST2 mRNA expression” value in the assay on IL1RL-1 mRNA expression (FIG. 9, interleukin-1 10 ng/ml) is reported as “PMA>strain>interleukin-1β; also recorded: PMA>strain>IL-1”. The “induction of T1/ST2 mRNA” value in the assay with T1/ST2 mRNA was “not”.

On to `O=S(=O)(O)c1cc(O)c(O)c(S(=O)(=O)O)c1` [TIRON], for which the “mRNA expression of IL1RL-1 in the absence and presence of strain” value in the assay on IL1RL-1 mRNA expression (FIG. 3, TIRON 10 mM) was “slightly attenuated”.

Regarding `C[C@@H]1C[C@@H]([C@H](O)CC2CC(=O)NC(=O)C2)C(=O)[C@@H](C)C1` [cyclohexamide], the “effect on the induction of IL1RL-1 mRNA expression by 8% mechanical strain” value with IL1RL-1 mRNA expression was “blocked the induction”.

Regarding angiotensin II, in the assay on IL1RL-1 mRNA expression, the “induction … of mechanical strain” value was “did not induce”.

On to interleukin-1β [IL-1β], for which, in the assay on IL1RL-1 mRNA expression, the “induction of T1/ST2 RNA in cardiac myocytes” value is “induce T1/ST2 RNA” and the “induction … of mechanical strain” value was “associated with an induction”. The “induction of IL1RL-1 by mechanical strain in the presence of IL-1β” value in the assay with IL1RL-1 mRNA expression (FIG. 5, 8% strain plus IL-1β 10 ng/ml) is reported as “not further increased”. Moreover, in the assay on IL1RL-1 mRNA expression (FIG. 5), the “rank order potency for the induction of IL1RL-1 mRNA expression” value is recorded as “PMA>strain>IL-1β” and the “induction of IL1RL-1 mRNA expression by the agent alone” value is listed as “induced”. Moreover, the “induction of T1/ST2 by mechanical strain in the presence of interleukin-1β” value in the assay with IL1RL-1 mRNA expression (FIG. 9, 8% strain plus interleukin-1 10 ng/ml) is recorded as “not further increased”. Moreover, the “rank order potency for the induction of T1/ST2 mRNA expression” value in the assay with IL1RL-1 mRNA expression (FIG. 9, interleukin-1 10 ng/ml) is “PMA>strain>interleukin-1β”. The “rank order potency for the induction of T1/ST2 mRNA expression” value in the assay with IL1RL-1 mRNA expression (FIG. 9, interleukin-1 10 ng/ml, listed as IL-1) is “PMA>strain>IL-1”. Also, the “induction of T1/ST2 mRNA in the presence of infection with control adenovirus” value in the assay with IL1RL-1 mRNA expression (FIG. 10, interleukin-1 10 ng/ml, 4 hours) was “induced T1/ST2 mRNA”. Further, the “induction of T1/ST2 mRNA” value in the assay on T1/ST2 mRNA was “induced”.
